Test results published in patent US20260193242A1, “USEFUL COMPOUNDS FOR MODULATING INFLAMMATION” (FLAGSHIP PIONEERING INNOVATIONS VI, LLC, priority 2022, published 2026).

Tests used:
[1] = tested on: R848-driven NFκB reporter (SEAP) in THP-1 cells; assay: TLR7/8 (R848) stimulated NFκB reporter gene assay in THP1-Dual cells; type: cell-based; details: Homo sapiens, THP-1, 10 μM compound, 1 μM R848, THP1-Dual cells; read-out: R848-driven NFκB reporter gene assay (Percent inhibition at 10 μM)
Description: Compounds described herein are added to the human leukemic monocyte-like cell line THP-1 for bioactivity assessment. THP1-Dual cells (InvivoGen, San Diego, CA) feature the Lucia gene, a secreted luciferase reporter gene, under the control of an ISG54 minimal promoter in conjunction with five IFN-stimulated response elements. THP1-Dual cells also express a secreted embryonic alkaline phosphatase (SEAP) reporter gene driven by an IFN-β minimal promoter fused to five copies of the NF-κB consensus transcriptional response element and three copies of the c-Rel binding site. As a result, THP1-Dual cells allow the simultaneous study of the NF-κB pathway, by monitoring the activity of SEAP, and the IRF pathway, by assessing the activity of Lucia luciferase.
THP-1 dual reporter cells were grown in RPMI 1640 culture medium with 2 mM L-glutamine, 25 mM HEPES, 10% heat-inactivated fetal bovine serum, 100 μg/ml Normocin antibiotic (InvivoGen), Pen-Strep antibiotic (100 U/ml-100 μg/ml, InvivoGen). On the day of the assay, cells were seeded in a 384 flat-bottom well plate at 25,000 cells/well and incubated for 2 hours. Cells were then incubated with 10 μM of the compounds described herein or with 1 μM of IKK-16 (Selleck), a potent inhibitor of IκB kinases (IKKs) or with DMSO (vehicle control) for 2 hours, followed by the addition of the synthetic TLR7/8 agonist R848 at 1 μM and incubation for 16 hours. After incubation was concluded, the cultures supernatants were collected and IRF related activity was assessed by measurement of the Lucia luciferase, using Quanti-Luc assay (InvivoGen). NF-κB pathway activity was assessed by quantifying SEAP using Quanti-Blue assay (InvivoGen).

[2] = tested on: TNBS-induced colitis, Balb/c mice; assay: TNBS-induced model of colitis in mice, dosing from day -1, prophylactic mode; type: in vivo
Description: (§1) Female Balb/c mice aged 8 weeks and weighing 18-20 g were housed under standard conditions. The mice were divided into groups with 8-10 mice in each group by body weight. Mice in sham group received intracolonic injection with 50% ethanol (0.1 mL) at day 0, whereas mice in other Trinitrobenzene sulfonic acid (TNBS) colitis model groups received intracolonic injection of 2% TNBS solution in ethanol (0.1 mL) at day 0. The reference compound Mesalazine (Selleck) and test articles described here were dosed from day-1 to day 6. Day 6 was the endpoint, and samples were immediately harvested for the last endpoint. Mesalazine was dissolved in distilled water (pH 7.0) and test articles were dissolved in Phosal 50 PG for delivery by oral gavage.
As noted, dosing of the compounds described herein, as well as the positive control mesalamine, began one day before TNBS administration. Animals in this scenario have not yet developed colitis symptoms before administration of test articles. For this reason, we refer to these conditions as “prophylactic mode”.
(§2) Body weight and Disease Activity Index (DAI) scores were recorded daily to assess the colitis. DAI score was the sum of the weight loss score, stool score and bleeding sub-scores. A blinded scoring system was employed to assess the colitis. The DAI scorer blinded to the group information and animal ID was responsible for the stool consistency and bleeding evaluations. If there was no blood visible with naked eyes, the Fecal occult blood (FOB) test was performed with a fecal occult blood test strip (the improved pyramidon method).
(§3) Colon tissue morphology, damage and healing were assessed by histopathology. The colons were harvested, mesentery and adipose tissue were carefully removed, and internal contents were removed by rinsing with cold PBS. The colons were Swiss-rolled and fixed in neutralized paraformaldehyde followed by H&E staining. Clinical pathologists reviewed the H&E staining and scored blinded with animal ID. The pathological scoring standards were: crypt architecture (normal, 0-severe crypt distortion with loss of entire crypts, 3), degree of inflammatory cell infiltration (normal, 0-dense inflammatory infiltrate, 3), muscle thickening (base of crypt sits on the muscularis mucosae, 0-marked muscle thickening present, 3), goblet cell depletion (absent, 0-present, 1) and crypt abscess (absent, 0-present, 1).
The plasma was collected at Day-1 for PK and cytokine (IL-1ß and IL-6) analysis by mandibular venipuncture.
(§4) The data was compared by ANOVA with post-hoc Dunnett's multiple comparisons test using Graph Pad Prism 7.0 software (San Diego, CA, USA). P-value<0.05 was considered as statistically significant difference. For pairwise comparison of histology scores and cytokines, unpaired t-test was used to calculate statistical significance. Data was expressed as mean±standard error of mean. In figures, statistical significance is denoted by asterisks: *p<0.05 **p<0.01 ***p<0.005, ****p<0.0001.

[3] = tested on: TNBS-induced colitis, Balb/c mice; assay: TNBS-induced model of colitis in mice, dosing from day 2, therapeutic mode; type: in vivo
Description: as §1, §2, §3, §4
Procedures were identical to those in Example 26, except that dosing of the compounds described herein, as well as the positive control mesalamine, began on the second day after TNBS administration, as diagrammed in FIG. 18. Animals in this scenario have developed colitis symptoms before administration of test articles. This is more similar to the clinical scenario with patients with inflammatory bowel disorder presenting with symptoms. For this reason, we refer to these conditions as “therapeutic mode”.

[4] = 1, 3 and 10 mg/kg PO, QD, vs Vehicle group
[5] = 30 mg/kg PO, QD, dosing from day 2
[6] = 30 mg/kg PO, QD, dosing from day 2, vs Vehicle group

In the case of `CN1[C@@H](C(=O)O)CC[C@H]1[C@@H]1CSC(c2ccccc2O)=N1` [Compound I-4, (2R,5S)-5-((R)-2-(2-hydroxyphenyl)-4,5-dihydrothiazol-4-yl)-1-methylpyrrolidine-2-carboxylic acid], the inhibition at 10 µM [1] was no less than 50%, the “body weight (% initial weight) recovery” value ([2]; 30 mg/kg, PO, QD, day -1 to day 6) was “faster recovery rate” and the total histology scores ([2]; 1, 3 and 10 mg/kg PO, QD) was “lower”. For the same compound, the “Disease Activity Index (DAI) scores” value ([2]; 1, 3 and 10 mg/kg PO, QD, day -1 to day 6) was “dose-dependent improvement”, the IL-1ß in plasma [2, 4] was “decreased” and the IL-6 in plasma [2, 4] was “decreased”. The “pathological score (crypt structure failure, inflammatory cell infiltration)” value ([2]; 1, 3 and 10 mg/kg PO, QD, H&E colon) was “lower”, the ED50 ([2]; Mus musculus, 144 h, PO, QD, day -1 to day 6, read-out: dose for half maximal effect or ED50 (DAI score at Day 6)) was 15 mg/kg and the “colon recovery and mucosal healing” value ([2]; in a dose-dependent manner, prophylactic mode) was “promoted the colon recovery and mucosal healing”. For the same compound, the “Disease Activity Index (DAI) scores” value [3, 5] was “improvement”, the “body weight (% initial weight) recovery” value [3, 5] was “faster recovery rate” and the total histology scores [3, 5] was “lower”. For the same compound, the IL-1B in plasma [3, 6] was “decreased”, the IL-6 in plasma [3, 6] was “decreased” and the “colon recovery and mucosal healing” value ([3]; therapeutic mode) was “promoted the colon recovery and mucosal healing”.
